ChEMBL document CHEMBL1157938, “Cytotoxicity and inhibition of DNA topoisomerase I of polyhydroxylated triterpenoids and triterpenoid glycosides” (Bioorg Med Chem Lett, 2010)
pIC50: −log10 of the molar value. Calls of active or inactive are those of the source. No cut-off for these calls is given here.

Key:
[1] = target: DNA topoisomerase 2-alpha (Homo sapiens, UniProt P11388); assay: Inhibition of human DNA topoisomerase 2-mediated relaxation of supercoiled DNA by gel electrophoresis
A549 [2] = assay: Cytotoxicity against human A549 cells after 48 hrs by WST8 assay; assay type: functional; conditions: A549, 48 h
[3] = Cytotoxicity against human MRC5 cells after 48 hrs by WST8 assay; assay type: cell-based
HL-60 [4] = assay: Cytotoxicity against human HL60 cells after 48 hrs by WST8 assay; assay type: functional; conditions: HL-60, 48 h
[5] = target: T1, DNA topoisomerase 1 (Homo sapiens) (UniProt P11387); assay: Inhibition of human DNA topoisomerase 1-mediated relaxation of supercoiled DNA at 450 uM
T1 sequence (whole entry): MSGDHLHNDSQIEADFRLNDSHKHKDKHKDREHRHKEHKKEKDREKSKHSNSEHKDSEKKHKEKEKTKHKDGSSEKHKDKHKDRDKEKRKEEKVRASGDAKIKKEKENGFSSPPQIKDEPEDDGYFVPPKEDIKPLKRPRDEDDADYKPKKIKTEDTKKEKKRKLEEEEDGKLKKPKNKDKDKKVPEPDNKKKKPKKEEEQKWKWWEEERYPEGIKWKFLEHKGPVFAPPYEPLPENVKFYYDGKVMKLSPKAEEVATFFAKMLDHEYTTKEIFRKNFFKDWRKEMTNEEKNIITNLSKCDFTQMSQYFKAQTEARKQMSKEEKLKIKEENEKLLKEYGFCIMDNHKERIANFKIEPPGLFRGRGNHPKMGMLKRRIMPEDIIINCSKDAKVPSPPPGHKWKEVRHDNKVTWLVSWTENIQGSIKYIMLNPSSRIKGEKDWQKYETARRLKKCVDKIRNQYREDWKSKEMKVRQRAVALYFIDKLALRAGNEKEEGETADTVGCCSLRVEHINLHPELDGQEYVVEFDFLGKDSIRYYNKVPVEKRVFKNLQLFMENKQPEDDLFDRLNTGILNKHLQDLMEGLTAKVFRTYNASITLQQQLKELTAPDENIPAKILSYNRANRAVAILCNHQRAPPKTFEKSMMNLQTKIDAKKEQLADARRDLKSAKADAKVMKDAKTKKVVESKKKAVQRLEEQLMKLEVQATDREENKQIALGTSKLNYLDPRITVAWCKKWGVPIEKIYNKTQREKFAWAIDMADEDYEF

PC-3 [6] = assay: Cytotoxicity against human PC3 cells after 48 hrs by WST8 assay; assay type: functional; conditions: PC-3, 48 h
DNA topoisomerase 1 [7] = target: T2, DNA topoisomerase 1 (Homo sapiens, UniProt P11387); assay: Inhibition of human DNA topoisomerase 1-mediated relaxation of supercoiled DNA by gel electrophoresis
T2 sequence (P11387 whole entry): T1 sequence (whole entry)

PANC-1 [8] = assay: Cytotoxicity against human PANC1 cells after 48 hrs by WST8 assay; assay type: functional; conditions: PANC-1, 48 h
[9] = target: T1, DNA topoisomerase 1 (Homo sapiens); assay: Inhibition of human DNA topoisomerase 1 assessed as prevention of DNA-enzyme complex formation
DNA topoisomerase 1 [10] = target: T2, DNA topoisomerase 1; assay: Inhibition of human DNA topoisomerase 1 at free enzyme state
[11] = target: T1, DNA topoisomerase 1 (Homo sapiens); assay: Inhibition of human DNA topoisomerase 1-mediated relaxation of supercoiled DNA at 63 to 125 uM
[12] = target: T1, DNA topoisomerase 1 (Homo sapiens); assay: Inhibition of human DNA topoisomerase 1 assessed as stabilize DNA-enzyme covalent complex
HL-60 [13] = assay: Cytotoxicity against human HL60 cells at 25 uM after 48 hrs by WST8 assay; assay type: functional, cell-based
PC-3 [14] = assay: Cytotoxicity against human PC3 cells at 25 uM after 48 hrs by WST8 assay; assay type: functional, cell-based
MRC5 = assay: Cytotoxicity against human MRC5 cells at 25 uM after 48 hrs by WST8 assay; assay type: cell-based; conditions: mrc5, 48 h
A549 [15] = assay: Cytotoxicity against human A549 cells at 25 uM after 48 hrs by WST8 assay; assay type: functional, cell-based
[16] = target: T1, DNA topoisomerase 1 (Homo sapiens); assay: Inhibition of human DNA topoisomerase 1-mediated relaxation of supercoiled DNA at 312 uM
PANC-1 [17] = assay: Cytotoxicity against human PANC1 cells at 25 uM after 48 hrs by WST8 assay; assay type: functional, cell-based
[18] = target: T1, DNA topoisomerase 1 (Homo sapiens); assay: Inhibition of human DNA topoisomerase 1 assessed as intercalate into DNA at 312 uM

Chain of DNA topoisomerase 2-alpha (P11388 whole entry): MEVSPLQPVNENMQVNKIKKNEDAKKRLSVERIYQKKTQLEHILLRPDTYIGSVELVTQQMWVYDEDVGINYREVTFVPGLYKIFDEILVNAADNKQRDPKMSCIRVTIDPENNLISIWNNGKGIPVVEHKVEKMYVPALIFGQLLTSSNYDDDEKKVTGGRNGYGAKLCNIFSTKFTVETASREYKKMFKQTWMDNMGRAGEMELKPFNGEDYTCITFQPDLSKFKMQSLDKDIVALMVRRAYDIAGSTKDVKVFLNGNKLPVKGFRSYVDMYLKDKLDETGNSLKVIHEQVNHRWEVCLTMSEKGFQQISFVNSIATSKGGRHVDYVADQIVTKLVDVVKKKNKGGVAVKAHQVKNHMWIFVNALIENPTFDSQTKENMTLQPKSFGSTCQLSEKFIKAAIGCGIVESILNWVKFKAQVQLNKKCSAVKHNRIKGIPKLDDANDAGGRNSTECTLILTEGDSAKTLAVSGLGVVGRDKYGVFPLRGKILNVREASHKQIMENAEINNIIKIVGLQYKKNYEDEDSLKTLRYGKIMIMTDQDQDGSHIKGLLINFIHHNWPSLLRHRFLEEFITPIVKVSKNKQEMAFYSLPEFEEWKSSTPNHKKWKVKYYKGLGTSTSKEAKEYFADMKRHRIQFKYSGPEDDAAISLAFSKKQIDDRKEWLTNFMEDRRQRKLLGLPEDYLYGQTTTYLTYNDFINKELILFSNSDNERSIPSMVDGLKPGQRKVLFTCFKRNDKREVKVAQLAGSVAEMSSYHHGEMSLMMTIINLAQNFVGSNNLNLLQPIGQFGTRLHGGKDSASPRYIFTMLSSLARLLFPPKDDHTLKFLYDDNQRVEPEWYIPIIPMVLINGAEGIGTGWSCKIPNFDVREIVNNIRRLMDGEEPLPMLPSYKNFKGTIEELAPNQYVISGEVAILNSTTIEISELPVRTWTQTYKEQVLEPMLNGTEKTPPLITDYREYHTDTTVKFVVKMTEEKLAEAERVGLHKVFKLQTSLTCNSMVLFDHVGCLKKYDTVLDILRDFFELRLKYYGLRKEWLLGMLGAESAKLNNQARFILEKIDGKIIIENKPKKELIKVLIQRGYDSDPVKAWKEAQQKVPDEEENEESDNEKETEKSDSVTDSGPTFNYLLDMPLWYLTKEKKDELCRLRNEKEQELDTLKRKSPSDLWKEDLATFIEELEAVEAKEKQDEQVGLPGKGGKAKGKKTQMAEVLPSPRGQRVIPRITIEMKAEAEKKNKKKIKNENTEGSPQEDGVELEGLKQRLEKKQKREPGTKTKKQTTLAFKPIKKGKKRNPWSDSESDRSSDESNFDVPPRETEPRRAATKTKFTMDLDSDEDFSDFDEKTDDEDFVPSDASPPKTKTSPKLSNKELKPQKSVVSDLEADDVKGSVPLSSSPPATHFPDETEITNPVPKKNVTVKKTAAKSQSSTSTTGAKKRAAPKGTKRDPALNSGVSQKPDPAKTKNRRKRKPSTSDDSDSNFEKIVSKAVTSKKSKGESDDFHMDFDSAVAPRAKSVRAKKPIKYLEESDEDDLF

| pIC50 [1] | inhibition [5] | pIC50 (DNA topoisomerase 1 [7]) | inhibition [9] | pIC50 (DNA topoisomerase 1 [10]) | inhibition [11] | inhibition [12] | inhibition [16] | Activity [18] | Structure (SMILES) | GI50 (A549 [2]) [µM] | GI50 at 48 h [3] [µM] | GI50 (HL-60 [4]) [µM] | GI50 (PC-3 [6]) [µM] | GI50 (PANC-1 [8]) [µM] | growth inhibition (GI) (HL-60 [13]) | growth inhibition (GI) (PC-3 [14]) | growth inhibition (GI) (MRC5) | growth inhibition (GI) (A549 [15]) | growth inhibition (GI) (PANC-1 [17]) |
| --- | --- | --- | --- | --- | --- | --- | --- | --- | --- | --- | --- | --- | --- | --- | --- | --- | --- | --- | --- |
|  |  |  |  |  |  |  | inactive | Active | C/C=C(/C)C(=O)O[C@H]1[C@H](O)[C@]2(CO)[C@H](O)C[C@]3(C)C(=CC[C@@H]4[C@@]5(C)CC[C@H](O[C@@H]6O[C@H](C(=O)O)[C@@H](O)[C@H](O[C@@H]7O[C@@H](CO)[C@H](O)[C@H]7O)[C@H]6O[C@@H]6O[C@H](CO)[C@@H](O)[C@H](O)[C@H]6O)[C@](C)(CO)[C@@H]5CC[C@]43C)[C@@H]2CC1(C)C [AESCULIOSIDE IIB] |  |  |  |  |  | inactive | inactive | Not Active | inactive | inactive |
| < 3.60 |  | 4.28 | Active | 4.62 | Active | inactive |  |  | C/C=C(/C)C(=O)O[C@H]1[C@H](OC(=O)/C(C)=C\C)[C@]2(CO)[C@H](O)C[C@]3(C)C(=CC[C@@H]4[C@@]5(C)CC[C@H](O[C@@H]6O[C@H](C(=O)O)[C@@H](O)[C@H](O[C@@H]7O[C@@H](CO)[C@H](O)[C@H]7O)[C@H]6O[C@@H]6O[C@H](CO)[C@@H](O)[C@H](O)[C@H]6O)[C@](C)(CO)[C@@H]5CC[C@]43C)[C@@H]2CC1(C)C | 6.36 | 5.5 | 1.94 | 1.6 | 11.1 |  |  |  |  |  |
| < 3.60 |  | 4.31 |  |  | Active |  |  | Active | C/C=C(\C)C(=O)O[C@H]1[C@H](OC(=O)/C(C)=C/C)[C@]2(CO)[C@H](O)[C@H](O)[C@]3(C)C(=CC[C@@H]4[C@@]5(C)CC[C@H](O[C@@H]6O[C@H](C(=O)O)[C@@H](O)[C@H](O[C@@H]7O[C@@H](CO)[C@H](O)[C@H]7O)[C@H]6O[C@@H]6O[C@H](CO)[C@@H](O)[C@H](O)[C@H]6O)[C@](C)(CO)[C@@H]5CC[C@]43C)[C@@H]2CC1(C)C [AESCULIOSIDE IIID] | 23.7 | 9.01 | 15.2 | 14.6 | 21.7 |  |  |  |  |  |
| < 3.60 |  | 4.29 | Active | 4.62 | Active | inactive |  |  | C/C=C(/C)C(=O)O[C@H]1[C@H](OC(=O)C(C)CC)[C@]2(CO)[C@H](O)[C@H](O)[C@]3(C)C(=CC[C@@H]4[C@@]5(C)CC[C@H](O[C@@H]6O[C@H](C(=O)O)[C@@H](O)[C@H](O[C@@H]7O[C@@H](CO)[C@H](O)[C@H]7O)[C@H]6O[C@@H]6O[C@H](CO)[C@H](O)[C@H](O)[C@H]6O)C(C)(C)[C@@H]5CC[C@]43C)[C@@H]2CC1(C)C (some centres not stated) [AESCULIOSIDE IVA] | 9.91 | 4.78 | 7.26 | 9.22 | 17.6 |  |  |  |  |  |
| < 3.60 |  | < 3.60 |  |  |  |  | inactive |  | C/C=C(/C)C(=O)O[C@H]1[C@H](O)[C@]2(CO)[C@H](O)[C@H](O)[C@]3(C)C(=CC[C@@H]4[C@@]5(C)CC[C@H](O[C@@H]6O[C@H](C(=O)O)[C@@H](O)[C@H](O[C@@H]7OC[C@@H](O)[C@H](O)[C@H]7O)[C@H]6O[C@@H]6O[C@H](CO)[C@@H](O)[C@H](O)[C@H]6O)C(C)(C)[C@@H]5CC[C@]43C)[C@@H]2CC1(C)C [ERYNGIOSIDE 94A] | 7.34 | 8.51 | 9.38 | 7.99 |  |  |  |  |  | inactive |
| < 3.60 |  | 4.30 | Active | 4.62 | Active | inactive |  |  | C/C=C(/C)C(=O)O[C@H]1[C@H](OC(=O)C(C)CC)[C@]2(CO)[C@H](O)C[C@]3(C)C(=CC[C@@H]4[C@@]5(C)CC[C@H](O[C@@H]6O[C@H](C(=O)O)[C@@H](O)[C@H](O[C@@H]7O[C@@H](CO)[C@H](O)[C@H]7O)[C@H]6O[C@@H]6O[C@H](CO)[C@H](O)[C@H](O)[C@H]6O)C(C)(C)[C@@H]5CC[C@]43C)[C@@H]2CC1(C)C (some centres not stated) [AESCULIOSIDE IVC] | 10.2 | 4.34 | 8.02 | 7.7 | 15.6 |  |  |  |  |  |
| < 3.60 |  | 4.35 |  |  | Active |  |  | Active | C/C=C(/C)C(=O)O[C@H]1[C@H](OC(=O)/C(C)=C/C)C(C)(C)C[C@H]2C3=CC[C@@H]4[C@@]5(C)CC[C@H](O[C@@H]6O[C@H](C(=O)O)[C@@H](O)[C@H](O[C@@H]7O[C@@H](CO)[C@H](O)[C@H]7O)[C@H]6O[C@@H]6O[C@H](CO)[C@@H](O)[C@H](O)[C@H]6O)[C@](C)(CO)[C@@H]5CC[C@@]4(C)[C@]3(C)[C@@H](O)[C@@H](O)[C@]21CO [AESCULIOSIDE IIIE] | 21.3 | 21.5 | 14 | 12.8 | 21.4 |  |  |  |  |  |

Continued, compound first:

| Structure (SMILES) | pIC50 [1] | inhibition [5] | pIC50 (DNA topoisomerase 1 [7]) | inhibition [9] | pIC50 (DNA topoisomerase 1 [10]) | inhibition [11] | inhibition [12] | inhibition [16] | Activity [18] | GI50 (A549 [2]) [µM] | GI50 at 48 h [3] [µM] | GI50 (HL-60 [4]) [µM] | GI50 (PC-3 [6]) [µM] | GI50 (PANC-1 [8]) [µM] | growth inhibition (GI) (HL-60 [13]) | growth inhibition (GI) (PC-3 [14]) | growth inhibition (GI) (MRC5) | growth inhibition (GI) (A549 [15]) | growth inhibition (GI) (PANC-1 [17]) |
| --- | --- | --- | --- | --- | --- | --- | --- | --- | --- | --- | --- | --- | --- | --- | --- | --- | --- | --- | --- |
| C/C=C(/C)C(=O)O[C@H]1[C@H](OC(=O)/C(C)=C\C)[C@]2(CO)[C@H](O)C[C@]3(C)C(=CC[C@@H]4[C@@]5(C)CC[C@H](O)C(C)(C)[C@@H]5CC[C@]43C)[C@@H]2CC1(C)C | < 3.60 | inactive | < 3.60 |  |  |  |  |  |  | 5.48 | 7.18 | 5.46 | 6.84 | 11.2 |  |  |  |  |  |
| C/C=C(/C)C(=O)O[C@H]1[C@H](OC(=O)/C(C)=C\C)[C@]2(CO)[C@H](O)[C@H](O)[C@]3(C)C(=CC[C@@H]4[C@@]5(C)CC[C@H](O[C@@H]6O[C@H](C(=O)O)[C@@H](O)[C@H](O[C@@H]7O[C@@H](CO)[C@H](O)[C@H]7O)[C@H]6O[C@@H]6O[C@H](CO)[C@H](O)[C@H](O)[C@H]6O)C(C)(C)[C@@H]5CC[C@]43C)[C@@H]2CC1(C)C | < 3.60 |  | 4.49 | Active | 4.62 | Active | inactive |  |  | 4.58 | 5.26 | 16.9 | 14.3 | 21.5 |  |  |  |  |  |
| CC(=O)O[C@H]1CC[C@]2(C)[C@H]3CC=C4[C@@H]5CC(C)(C)CC[C@]5(C)CC[C@@]4(C)[C@]3(C)CC[C@H]2C1(C)C [beta-AMYRIN ACETATE] |  |  |  |  |  |  |  | inactive |  |  |  |  |  |  | inactive | inactive | Not Active | inactive | inactive |
| CC1(C)C=C2[C@H]3CC[C@@H]4[C@@]5(C)CC[C@H](O)C(C)(C)[C@@H]5CC[C@@]4(C)[C@]3(C)CC[C@@]2(C)CC1 [GERMANICOL] |  |  |  |  |  |  |  | inactive |  |  |  |  |  |  | inactive | inactive | Not Active | inactive | inactive |
